Laboratory results as given in US20040175691A1, “Use of the KCNQ2 and KCNQ3 genes for the discovery of agents useful in the treatment of neurological disorders” (priority 1998, published 2004).

Columns and labels:
Assay type in all cases: cell-based
Settings in all cases: mean±s.e.m.
erg1 = target: T1, erg1 (Rattus norvegicus, UniProt O08962); assay: Blockade of cloned erg1 channel in oocytes
T1 construct: expressed in transfected cells; host or cells: oocytes (Xenopus)
T1 sequence (O08962 1-1163): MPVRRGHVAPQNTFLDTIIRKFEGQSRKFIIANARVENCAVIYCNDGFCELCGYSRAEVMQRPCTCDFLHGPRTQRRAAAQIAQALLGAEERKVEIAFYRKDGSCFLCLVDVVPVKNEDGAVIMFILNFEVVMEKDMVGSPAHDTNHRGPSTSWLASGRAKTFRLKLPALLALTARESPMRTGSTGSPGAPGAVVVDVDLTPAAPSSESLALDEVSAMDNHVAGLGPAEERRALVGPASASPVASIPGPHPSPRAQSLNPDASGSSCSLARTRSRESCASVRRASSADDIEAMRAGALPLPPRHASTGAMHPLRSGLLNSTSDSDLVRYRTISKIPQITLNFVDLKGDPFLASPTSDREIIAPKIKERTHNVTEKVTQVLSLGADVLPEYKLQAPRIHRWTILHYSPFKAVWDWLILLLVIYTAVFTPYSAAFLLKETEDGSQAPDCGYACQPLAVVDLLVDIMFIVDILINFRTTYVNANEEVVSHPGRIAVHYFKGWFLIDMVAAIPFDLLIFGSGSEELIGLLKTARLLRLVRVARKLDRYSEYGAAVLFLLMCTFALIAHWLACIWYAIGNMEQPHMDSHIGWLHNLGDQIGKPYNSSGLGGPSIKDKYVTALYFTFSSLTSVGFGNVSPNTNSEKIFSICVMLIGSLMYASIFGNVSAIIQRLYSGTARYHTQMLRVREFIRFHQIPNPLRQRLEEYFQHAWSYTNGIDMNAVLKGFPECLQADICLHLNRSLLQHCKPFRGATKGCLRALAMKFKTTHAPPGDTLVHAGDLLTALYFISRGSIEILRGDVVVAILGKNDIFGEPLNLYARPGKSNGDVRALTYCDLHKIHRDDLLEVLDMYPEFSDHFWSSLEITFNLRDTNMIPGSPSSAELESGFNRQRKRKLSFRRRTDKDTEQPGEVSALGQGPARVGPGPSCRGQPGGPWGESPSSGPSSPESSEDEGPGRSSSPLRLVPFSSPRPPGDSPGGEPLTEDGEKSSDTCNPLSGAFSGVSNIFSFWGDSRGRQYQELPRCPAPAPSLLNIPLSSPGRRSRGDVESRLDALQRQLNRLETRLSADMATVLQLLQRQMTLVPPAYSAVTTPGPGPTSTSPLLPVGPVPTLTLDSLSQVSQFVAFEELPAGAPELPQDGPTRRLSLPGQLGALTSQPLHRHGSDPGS

erg3 = target: T2, erg3 (Rattus norvegicus, UniProt O54852); assay: Blockade of cloned erg3 channel in oocytes
T2 construct: expressed in transfected cells; host or cells: oocytes (Xenopus)
T2 sequence (O54852 1-1195): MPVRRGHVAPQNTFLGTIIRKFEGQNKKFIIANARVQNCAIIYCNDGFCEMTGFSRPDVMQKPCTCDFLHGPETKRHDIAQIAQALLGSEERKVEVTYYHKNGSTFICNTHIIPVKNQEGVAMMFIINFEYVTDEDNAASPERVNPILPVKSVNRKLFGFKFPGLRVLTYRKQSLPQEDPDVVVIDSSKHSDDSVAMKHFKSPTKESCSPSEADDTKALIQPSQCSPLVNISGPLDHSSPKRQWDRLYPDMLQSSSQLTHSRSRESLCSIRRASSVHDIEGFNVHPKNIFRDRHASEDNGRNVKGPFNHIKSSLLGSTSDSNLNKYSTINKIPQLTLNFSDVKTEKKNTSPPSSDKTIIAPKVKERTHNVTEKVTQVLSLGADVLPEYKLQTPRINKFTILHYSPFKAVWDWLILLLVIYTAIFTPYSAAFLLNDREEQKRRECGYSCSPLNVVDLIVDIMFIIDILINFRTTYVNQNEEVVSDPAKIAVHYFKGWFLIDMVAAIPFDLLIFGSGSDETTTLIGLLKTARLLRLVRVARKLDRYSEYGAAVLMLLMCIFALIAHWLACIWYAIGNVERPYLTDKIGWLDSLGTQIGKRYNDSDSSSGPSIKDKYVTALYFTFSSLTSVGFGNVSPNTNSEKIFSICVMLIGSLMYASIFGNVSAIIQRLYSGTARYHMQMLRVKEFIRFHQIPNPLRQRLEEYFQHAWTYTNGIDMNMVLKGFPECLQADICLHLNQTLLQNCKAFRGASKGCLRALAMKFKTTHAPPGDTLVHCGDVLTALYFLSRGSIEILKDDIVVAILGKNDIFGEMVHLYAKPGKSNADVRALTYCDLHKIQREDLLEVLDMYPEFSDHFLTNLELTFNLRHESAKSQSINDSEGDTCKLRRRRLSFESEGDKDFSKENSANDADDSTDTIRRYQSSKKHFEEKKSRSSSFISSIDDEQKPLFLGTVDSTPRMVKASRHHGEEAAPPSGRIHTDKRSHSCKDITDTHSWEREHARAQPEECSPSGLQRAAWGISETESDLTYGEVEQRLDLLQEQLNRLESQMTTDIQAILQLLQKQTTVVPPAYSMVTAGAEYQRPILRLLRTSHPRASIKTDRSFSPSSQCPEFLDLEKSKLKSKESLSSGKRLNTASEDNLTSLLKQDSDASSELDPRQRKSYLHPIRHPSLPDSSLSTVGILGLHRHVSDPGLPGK

Kv4.3 = target: T3, Kv4.3 (Homo sapiens, UniProt Q9UK17); assay: Blockade of cloned Kv4.3 channel in oocytes
T3 construct: expressed in transfected cells; host or cells: oocytes (Xenopus)
T3 sequence (Q9UK17 1-655): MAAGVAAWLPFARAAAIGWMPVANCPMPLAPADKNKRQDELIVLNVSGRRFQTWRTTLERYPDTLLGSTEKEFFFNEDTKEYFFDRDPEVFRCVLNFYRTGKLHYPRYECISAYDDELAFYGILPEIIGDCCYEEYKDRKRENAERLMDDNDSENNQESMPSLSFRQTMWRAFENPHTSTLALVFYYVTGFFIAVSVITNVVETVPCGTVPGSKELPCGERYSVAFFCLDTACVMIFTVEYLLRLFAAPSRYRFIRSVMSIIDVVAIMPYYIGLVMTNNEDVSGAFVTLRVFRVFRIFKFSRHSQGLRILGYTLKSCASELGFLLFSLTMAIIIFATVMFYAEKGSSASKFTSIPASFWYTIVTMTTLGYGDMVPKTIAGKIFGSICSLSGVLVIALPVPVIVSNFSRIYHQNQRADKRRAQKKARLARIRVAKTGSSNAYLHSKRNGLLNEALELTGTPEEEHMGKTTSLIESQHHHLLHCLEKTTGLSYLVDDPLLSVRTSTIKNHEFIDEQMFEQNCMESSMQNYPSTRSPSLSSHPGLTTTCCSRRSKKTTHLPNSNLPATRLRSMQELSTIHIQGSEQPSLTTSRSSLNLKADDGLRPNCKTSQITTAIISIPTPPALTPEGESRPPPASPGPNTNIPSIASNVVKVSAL

Row | SMILES | IC50 (erg1) [µM] | IC50 (erg3) [µM] | IC50 (Kv4.3) [µM]
1 | O=C1c2ccccc2C(Cc2ccncc2)(Cc2ccncc2)c2ccccc21 [XE991, 10,10-bis(4-pyridinylmethyl)-9(10H)-anthracenone] | > 100 | > 100 | 43 ± 7
2 | O=C1N(c2ccccc2)c2ccccc2C1(Cc1ccncc1)Cc1ccncc1 [Linopirdine, 3,3-bis(4-pyridinylmethyl)-1-phenylindolin-2-one] | 53 ± 4 | 85 ± 5 | 86 ± 14
